Source: the supplement of paper PMC10307832

Columns and labels:
Test in all cases: relative viability (nuclei count vs DMSO), 5 days (fraction); higher = more cells survive
Carboplatin + Luminespib = compound: C1CC(C1)(C(=O)O)C(=O)O.[NH2-].[NH2-].[Pt+2] [Carboplatin] + CCNC(=O)c1noc(-c2cc(C(C)C)c(O)cc2O)c1-c1ccc(CN2CCOCC2)cc1 [Luminespib] (partner 0.01 µM)
How it was run: (§1)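 Five library-drug doses in √10 steps were combined with a fixed anchor-drug dose, or a single drug was given alone, by pin tool to lung cancer cell lines in 1536-well plates the day after seeding. Nuclei were stained and counted after 5 days. Relative viability is the nuclei count in treated wells over that in vehicle wells, taken as the median of duplicate plates.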

GSK126 + Decitabine = compound: CC[C@H](C)N1C=C(C2=C(C=C(C=C21)C3=CN=C(C=C3)N4CCNCC4)C(=O)NCC5=C(C=C(NC5=O)C)C)C [GSK126] + Nc1ncn([C@H]2C[C@H](O)[C@@H](CO)O2)c(=O)n1 [Decitabine] (partner 2 µM)
How it was run: as §1

GSK126 + Vorinostat = compound: CC[C@H](C)N1C=C(C2=C(C=C(C=C21)C3=CN=C(C=C3)N4CCNCC4)C(=O)NCC5=C(C=C(NC5=O)C)C)C [GSK126] + O=C(CCCCCCC(=O)Nc1ccccc1)NO [Vorinostat] (partner 1 µM)
How it was run: as §1

MLN4924 + Bortezomib = compound: NS(=O)(=O)OC[C@@H]1C[C@@H](n2ccc3c(N[C@H]4CCc5ccccc54)ncnc32)C[C@@H]1O [MLN4924] + CC(C)C[C@H](NC(=O)[C@H](Cc1ccccc1)NC(=O)c1cnccn1)B(O)O [Bortezomib] (partner 0.002 µM)
How it was run: as §1

Row | Cell Line | relative viability (Carboplatin + Luminespib; first compound 0.08 µM) | relative viability (Carboplatin + Luminespib; first compound 0.253 µM) | relative viability (Carboplatin + Luminespib; first compound 0.8 µM) | relative viability (Carboplatin + Luminespib; first compound 2.53 µM) | relative viability (Carboplatin + Luminespib; first compound 8 µM) | relative viability (GSK126 + Decitabine; first compound 0.08 µM) | relative viability (GSK126 + Decitabine; first compound 0.253 µM) | relative viability (GSK126 + Decitabine; first compound 0.8 µM) | relative viability (GSK126 + Decitabine; first compound 2.53 µM) | relative viability (GSK126 + Decitabine; first compound 8 µM) | relative viability (GSK126 + Vorinostat; first compound 0.08 µM) | relative viability (GSK126 + Vorinostat; first compound 0.253 µM) | relative viability (GSK126 + Vorinostat; first compound 0.8 µM) | relative viability (GSK126 + Vorinostat; first compound 2.53 µM) | relative viability (GSK126 + Vorinostat; first compound 8 µM) | relative viability (MLN4924 + Bortezomib; first compound 0.04 µM) | relative viability (MLN4924 + Bortezomib; first compound 0.1265 µM) | relative viability (MLN4924 + Bortezomib; first compound 0.4 µM) | relative viability (MLN4924 + Bortezomib; first compound 1.265 µM) | relative viability (MLN4924 + Bortezomib; first compound 4 µM)
1 | NCI-H2347 | 0.573 | 0.421 | 0.368 | 0.432 | 0.352 | 0.478 | 0.588 | 0.607 | 0.567 | 0.648 | 0.659 | 0.479 | 0.503 | 0.601 | 0.563 | 0.79 | 0.933 | 0.532 | 0.392 | 0.395
2 | NCI-H2405 | 0.813 | 0.838 | 0.591 | 0.606 | 0.724 | 0.757 | 0.66 | 0.71 | 0.747 | 0.729 | 1.12 | 0.933 | 1.01 | 1.05 | 1.04 | 0.935 | 0.957 | 0.639 | 0.266 | 0.283
3 | NCI-H3122 | 0.102 | 0.0787 | 0.0812 | 0.09 | 0.0968 | 0.417 | 0.373 | 0.386 | 0.466 | 0.543 | 1.14 | 1.15 | 0.933 | 1.06 | 1.18 | 1.07 | 0.752 | 0.35 | 0.208 | 0.146
4 | PC-3 [JPC-3] | 0.807 | 0.749 | 0.616 | 0.716 | 0.703 | 0.831 | 0.74 | 0.826 | 0.86 | 0.881 | 0.949 | 0.82 | 0.806 | 1 | 0.825 | 0.857 | 0.819 | 0.573 | 0.328 | 0.282
5 | PC-14 | 0.116 | 0.144 | 0.148 | 0.107 | 0.155 | 0.215 | 0.2 | 0.166 | 0.255 | 0.213 | 0.768 | 0.732 | 0.623 | 0.745 | 0.692 | 0.857 | 0.823 | 0.369 | 0.172 | 0.101
6 | RERF-LC-KJ | 1.24 | 1.18 | 1.13 | 0.918 | 0.5 | 0.717 | 0.731 | 0.715 | 0.735 | 0.779 | 0.747 | 0.791 | 0.654 | 0.716 | 0.827 | 0.874 | 0.828 | 0.244 | 0.24 | 0.28
7 | SK-LU-1 | 0.22 | 0.21 | 0.192 | 0.21 | 0.198 | 0.711 | 0.535 | 0.6 | 0.928 | 0.708 | 0.852 | 0.684 | 0.781 | 0.776 | 0.905 | 0.856 | 0.866 | 0.293 | 0.187 | 0.28
8 | SW 1573 | 0.298 | 0.293 | 0.344 | 0.579 | 0.222 | 0.648 | 0.463 | 0.431 | 0.573 | 0.517 | 1.02 | 0.704 | 0.681 | 0.735 | 0.852 | 1.03 | 0.932 | 0.249 | 0.0788 | 0.0726
